Reference: the CheMixHub drug solubility set

Experiment: xn = mol fraction of the nth substance listed, in the solute-free solvent

O=C1CCc2ccc(OCCCCN3CCN(c4cccc(Cl)c4Cl)CC3)cc2N1 + CCC(C)=O + CCOC(C)=O
solubility (g/100 g solution)
Details | 278.15 K | 283.15 K | 288.15 K | 293.15 K | 298.15 K | 303.15 K | 308.15 K | 313.15 K | 318.15 K
x2 = 0.1 | 0.601 | 0.745 | 0.882 | 1.04 | 1.24 | 1.57 | 1.88 | 2.26 | 2.76
x2 = 0.2 | 0.641 | 0.794 | 0.953 | 1.12 | 1.37 | 1.74 | 2.08 | 2.45 | 2.98
x2 = 0.3 | 0.681 | 0.845 | 1.04 | 1.22 | 1.48 | 1.91 | 2.28 | 2.68 | 3.24
x2 = 0.4 | 0.73 | 0.907 | 1.14 | 1.32 | 1.61 | 2.06 | 2.48 | 2.92 | 3.53
x2 = 0.5 | 0.778 | 0.975 | 1.23 | 1.44 | 1.75 | 2.22 | 2.66 | 3.16 | 3.8
x2 = 0.6 | 0.825 | 1.05 | 1.32 | 1.57 | 1.89 | 2.39 | 2.86 | 3.4 | 4.12
x2 = 0.7 | 0.879 | 1.13 | 1.43 | 1.69 | 2.03 | 2.55 | 3.04 | 3.65 | 4.42
x2 = 0.8 | 0.948 | 1.22 | 1.53 | 1.83 | 2.18 | 2.72 | 3.25 | 3.87 | 4.75
x2 = 0.9 | 1.04 | 1.34 | 1.63 | 1.98 | 2.36 | 2.91 | 3.48 | 4.12 | 5.04

O=C1CCc2ccc(OCCCCN3CCN(c4cccc(Cl)c4Cl)CC3)cc2N1 + CCC(C)=O + CCCO
solubility (g/100 g solution)
Details | 278.15 K | 283.15 K | 288.15 K | 293.15 K | 298.15 K | 303.15 K | 308.15 K | 313.15 K | 318.15 K
x2 = 0.1 | 0.703 | 0.851 | 1.04 | 1.22 | 1.46 | 1.7 | 2.04 | 2.61 | 3.38
x2 = 0.2 | 1.03 | 1.2 | 1.44 | 1.69 | 1.98 | 2.38 | 2.87 | 3.56 | 4.45
x2 = 0.3 | 1.32 | 1.52 | 1.88 | 2.29 | 2.68 | 3.15 | 3.67 | 4.46 | 5.5
x2 = 0.4 | 1.6 | 1.86 | 2.24 | 2.74 | 3.21 | 3.77 | 4.34 | 5.18 | 6.36
x2 = 0.5 | 1.86 | 2.05 | 2.48 | 3.03 | 3.59 | 4.13 | 4.81 | 5.82 | 7.2
x2 = 0.6 | 2.04 | 2.25 | 2.67 | 3.18 | 3.75 | 4.3 | 5.16 | 6.36 | 7.89
x2 = 0.7 | 1.98 | 2.21 | 2.62 | 3.12 | 3.68 | 4.22 | 5.04 | 6.23 | 7.71
x2 = 0.8 | 1.84 | 2.09 | 2.47 | 2.96 | 3.48 | 4.03 | 4.72 | 5.83 | 7.15
x2 = 0.9 | 1.68 | 1.94 | 2.27 | 2.69 | 3.12 | 3.61 | 4.21 | 5.13 | 6.36

CCCCOc1ccc(C(=O)CCN2CCCCC2)cc1.Cl + CCO + CCCCCC
solubility (g/100 g solution)
Details | 278.15 K | 283.15 K | 288.15 K | 293.15 K | 298.15 K | 303.15 K | 308.15 K | 313.15 K | 318.15 K | 323.15 K
x2 = 0.1 | 2.56 | 2.95 | 3.35 | 3.75 | 4.22 | 4.75 | 5.33 | 5.97 | 6.73 | 7.53
x2 = 0.2 | 5.09 | 5.71 | 6.4 | 7.2 | 8.01 | 8.91 | 9.95 | 11.1 | 12.4 | 13.8
x2 = 0.3 | 7.84 | 8.72 | 9.72 | 10.8 | 12 | 13.4 | 14.9 | 16.6 | 18.4 | 20.3
x2 = 0.4 | 10.6 | 11.8 | 13.1 | 14.6 | 16.2 | 17.9 | 19.8 | 21.8 | 24 | 26.4
x2 = 0.5 | 13.7 | 15.2 | 16.8 | 18.6 | 20.5 | 22.6 | 24.8 | 27.3 | 29.9 | 32.6
x2 = 0.6 | 16.8 | 18.8 | 20.6 | 22.7 | 25 | 27.3 | 29.9 | 32.6 | 35.5 | 38.5
x2 = 0.7 | 20.3 | 22.4 | 24.6 | 27 | 29.4 | 32 | 35 | 37.9 | 41 | 44.1
x2 = 0.8 | 23.9 | 26.3 | 28.7 | 31.4 | 34.1 | 36.8 | 39.8 | 43 | 46.3 | 49.5
x2 = 0.9 | 27.7 | 30.4 | 33 | 35.8 | 38.8 | 41.8 | 45 | 48.3 | 51.6 | 54.9

Oc1ccc(Cl)c2cccnc12 + CCCOC(C)=O + CCO
solubility (g/100 g solution)
Details | 278.15 K | 283.15 K | 288.15 K | 293.15 K | 298.15 K | 303.15 K | 308.15 K | 313.15 K | 318.15 K | 323.15 K
x2 = 0.1013 | 1.48 | 1.74 | 2.02 | 2.4 | 2.82 | 3.28 | 3.89 | 4.6 | 5.52 | 6.43
x2 = 0.2214 | 1.97 | 2.29 | 2.69 | 3.2 | 3.76 | 4.43 | 5.18 | 6.1 | 7.46 | 8.81
x2 = 0.4035 | 2.41 | 2.81 | 3.3 | 3.87 | 4.53 | 5.41 | 6.43 | 7.55 | 8.8 | 10.5
x2 = 0.6434 | 2.74 | 3.26 | 3.83 | 4.52 | 5.3 | 6.25 | 7.27 | 8.56 | 9.99 | 11.7
